Series [1] can be described thus: Antioxidant activity assessed as hydroxyl radical scavenging activity at 1 mM after 5 min by UV-Visible spectrophotometry. The class given is functional.
Series [2] has as its system Radical scavenging activity. The series can be described thus: Antioxidant activity assessed as DPPH radical scavenging activity at 1 mM after 20 min by UV-Visible spectrophotometry. Format: functional. (DPPH is a stable violet radical that fades when it is reduced.)
Series [3] in a line: Antioxidant activity assessed as ferric reducing activity at 1 mM after 5 min by UV-Visible spectrophotometry. On the set-up: scale not given: the % may be the effect or the level left. Format: functional.
Series [4] concerns Candida albicans. Kind of series: Antimicrobial activity against Candida albicans MTCC 3017 at 10 ug after 48 hr by agar disk diffusion method. The class given is functional. The following applies: MTCC 3017, 48 h, read-out: DIZ. A general note: Agar diffusion results depend on both activity and mobility in agar.
Series [5] concerns Escherichia coli. Kind of series: Antimicrobial activity against Escherichia coli DH5[alpha] at 20 ug after 24 hr by agar disk diffusion method. Format: functional. The following applies: read-out: DIZ.
The subject of series [6] is Proteus vulgaris. The series can be described thus: Antimicrobial activity against Proteus vulgaris MTCC 1751 at 20 ug after 24 hr by agar disk diffusion method. Format: functional. The following applies: MTCC 1751, 24 h, read-out: DIZ.
Series [7] concerns Staphylococcus aureus. Kind of series: Antimicrobial activity against Staphylococcus aureus MTCC 96 at 20 ug after 24 hr by agar disk diffusion method. Format: functional. The following applies: MTCC 96, 24 h, read-out: DIZ.
Series [8] in a line: Cytotoxicity against Homo sapiens (human) Hep-3BPN7 at 100 ug after 72 hr by MTT assay. The class given is functional. For orientation: Formazan colour is commonly taken as a measure of viable cells.
In series [9] the test system is Staphylococcus aureus. Kind of series: Antimicrobial activity against Staphylococcus aureus MTCC 96 at 100 ug after 24 hr by agar disk diffusion method. The class given is functional. The following applies: MTCC 96, 24 h, read-out: DIZ.
For series [10], the system named is Escherichia coli. Kind of series: Antimicrobial activity against Escherichia coli DH5[alpha] at 100 ug after 24 hr by agar disk diffusion method. The class given is functional. The following applies: read-out: DIZ.
The nature of series [11]: Cytotoxicity against Homo sapiens (human) PN-5C-12 at 100 ug after 72 hr by MTT assay. The following applies: in vitro.
A short description of series [12]: Antioxidant activity assessed as hydroxyl radical scavenging activity at 100 ug after 5 min by UV-Visible spectrophotometry. Format: functional.
Series [13] is described as follows: Antioxidant activity assessed as ferric reducing activity at 100 ug after 20 min by UV-Visible spectrophotometry. On the set-up: scale not given: the % may be the effect or the level left.
Series [14] in a line: Cytotoxicity against Homo sapiens (human) HeLa-B75 at 100 ug after 72 hr by MTT assay. The class given is functional.
Series [15] concerns Proteus vulgaris. Kind of series: Antimicrobial activity against Proteus vulgaris MTCC 1751 at 100 ug after 24 hr by agar disk diffusion method. The class given is functional. The following applies: MTCC 1751, 24 h, read-out: DIZ.
Series [16] is described as follows: Cytotoxicity against Homo sapiens (human) HL60-P58 at 100 ug after 72 hr by MTT assay. The class given is functional.
Series [17] concerns Candida albicans. The series can be described thus: Antimicrobial activity against Candida albicans MTCC 3017 at 100 ug after 48 hr by agar disk diffusion method. Format: functional. The following applies: MTCC 3017, 48 h, read-out: DIZ.
Series [18] deals with Radical scavenging activity. The series can be described thus: Antioxidant activity assessed as DPPH radical scavenging activity at 100 ug after 20 min by UV-Visible spectrophotometry. The class given is functional.

The structures appear in SMILES notation.

As for `O=C1O[C@H]([C@@H](O)CO)C(O)=C1O`, the Activity in series [1] turned out to be 88.3%; in series [2], 95.8%; in series [3] it was 78.2%.
`OC(Cn1cncn1)(Cn1cncn1)c1ccc(F)cc1F` [FLUCONAZOLE]: the zone of inhibition at 10 µg/disc in the series with Candida albicans [4] stood at 6.5 mm.
For the molecule `CN[C@@H]1[C@H](O[C@H]2[C@H](O[C@H]3[C@H](O)[C@@H](O)[C@H](N=C(N)N)[C@@H](O)[C@@H]3N=C(N)N)O[C@@H](C)[C@]2(O)C=O)O[C@@H](CO)[C@H](O)[C@H]1O` [STREPTOMYCIN], the figures for the zone of inhibition at 20 µg/disc in the series with Escherichia coli [5], in the series on Proteus vulgaris [6] and in the series with Staphylococcus aureus [7] were 2.5 mm, 2.4 mm and 2 mm, respectively.
As for `COc1cc(OC)c(C2=CCN(C)CC2)c(OC)c1/C=C/C(=O)c1cccc(N)c1`, the Activity in series [8] came to 76.33%; in series [11] it was 44.53%; in series [12], 55.6%; in series [13], 64.8%; in series [14] it was 82.64%; in series [16], 66.72%. Moreover, in series [18], the Activity stood at 94.5%. Moreover, the zone of inhibition at 100 µg/disc in the series on Staphylococcus aureus [9] was 3.5 mm; in the series on Escherichia coli [10], 3.5 mm; with Proteus vulgaris [15] it was 7 mm; in the series on Candida albicans [17], 6.3 mm.
For `COc1cc(OC)c(C2=CCN(C)CC2)c(OC)c1/C=C/C(=O)c1ccc(N)cc1`, the Activity in series [8] is 75.06%; in series [11], 49.67%; in [12] it was 54.1%; in series [13] it was 48.3%; in series [14], 79.28%; in [16], 61.17%. For the same molecule, in [18], the Activity was 89.6%. The zone of inhibition at 100 µg/disc worked out at 1.5 mm in the series on Staphylococcus aureus [9], 6.5 mm in the series with Escherichia coli [10], 5 mm with Proteus vulgaris [15] and 2.9 mm in the series with Candida albicans [17].
`COc1cc(OC)c(C2=CCN(C)CC2)c(OC)c1/C=C/C(=O)c1cccs1`: the Activity in [8] was 79.8%; in [11], 67.19%; in series [12], 36.5%; in series [13], 59.6%; in series [14], 84.91%; in [16] it was 54.28%. In addition, the Activity in [18] amounted to 22.7%. Also, the zone of inhibition at 100 µg/disc in the series on Staphylococcus aureus [9] amounted to 2.5 mm; with Escherichia coli [10], 1.1 mm; in the series on Proteus vulgaris [15], 6.5 mm; in the series with Candida albicans [17] it was 1.5 mm.
`COc1cc(OC)c(C2=CCN(C)CC2)c(OC)c1/C=C/C(=O)c1ccc(Cl)c(Cl)c1`: the Activity in series [8] came out at 79.8%; in series [11], 67.19%; in series [12], 59.8%; in series [13], 46.7%; in series [14], 85.93%; in series [16] it was 65.04%. The Activity in series [18] was determined as 56.9%. In addition, the zone of inhibition at 100 µg/disc in the series with Staphylococcus aureus [9] worked out at 5 mm; with Escherichia coli [10] it was 1.5 mm; in the series with Proteus vulgaris [15], 9.1 mm; in the series with Candida albicans [17], 5.5 mm.
`COc1cc(OC)c(C2=CCN(C)CC2)c(OC)c1/C=C/C(=O)c1ccccc1`: the Activity turned out to be 78.06% in series [8]; 61.79% in series [11]; 41.4% in series [12]; 58.4% in series [13]; 84.15% in series [14]; 63.52% in [16]. Also, the Activity in series [18] came out at 27.9%. Also, the zone of inhibition at 100 µg/disc worked out at 5 mm in the series with Staphylococcus aureus [9], 5.5 mm in the series on Escherichia coli [10], 2.5 mm in the series on Proteus vulgaris [15] and 3.5 mm with Candida albicans [17].
